Measurements reported in US11498900B2, “Salts of an LSD1 inhibitor” (Incyte Corporation, priority 2015, dated 2022).
One block for each molecule: values may come before it.

How the values were obtained:
Assay type in all cases: physicochemical
[1] = Dynamic vapor sorption (DVS) analysis; conditions: 25° C.; for Hygroscopicity (DVS adsorption/desorption isotherm): bis(4-methylbenzenesulfonate)
Experimental: (§1) Form I was characterized by DVS. The DVS analysis was performed on a TA Instruments Vapor Sorption Analyzer, model VTI-SA^+. The sample was pre-dried on VTI at 50° C. with 0% RH N2 for 1 h. Then the moisture uptake profile was completed in one cycle in 5% RH increments with adsorption from 0% RH to 95% RH followed by desorption in 5% increments from 95% to 5% RH. The equilibration criteria were 0.0050 wt % in 5 minutes with a maximum equilibration time of 180 minutes. All adsorption and desorption were performed at 25° C.
as §1, with “Form HI” for “Form I”, “The” for “The sample was pre-dried on VTI at 50° C. with 0% RH N2 for 1 h. Then the”, “from 35%” for “from 0%”, “were 0.0010” for “were 0.0050”, “C. No pre-drying step was applied for the sample.” for “C.”
Form DH was characterized by DVS. The DVS analysis was performed on a TA Instruments Vapor Sorption Analyzer, model VTI-SA^+. Form DH was generated by pre-drying Form HI on VTI at 40° C. with 0% RH N2 for 3 h. Then the moisture uptake profile was completed in one cycle in 5% RH increments with adsorption from 0% RH to 95% RH followed by desorption in 5% increments from 95% to […]. The equilibration criteria were 0.0010 wt % in 5 minutes with a maximum equilibration time of 180 minutes. All adsorption and desorption were performed at 25° C.

[2] = Solid form conversion on storage or exposure to humidity
Experimental: Form HI of Compound I di-tosylate salt was prepared during the process of drying a wet sample of Compound I di-tosylate salt, Form I, under ambient conditions. […] Form HI can also be generated by purging humidified air (e.g., 60-85% RH) through Form I solid.
Form HIII was prepared by drying Form HI on Vapor Sorption Analyzer (TA Instruments VTI-SA^+) at 40° C. with 0% RH N2 for 3 h and then exposing it to humidity at about 30-50% RH at 25° C. for 1 day.
Form DH was prepared by drying Form HI on Vapor Sorption Analyzer (TA Instruments VTI-SA*) at 25° C. with 0% RH N2 for 2 days.

[3] = Physical stability of Form HI under different humidity conditions
Experimental: Physical stability of Form HI was studied under different humidity conditions. The humidity was controlled at 25° C. using Vapor Sorption Analyzer (TA Instruments, Model VTI-SA*). Approximately 20 mg of Form HI in the sample holder was placed inside the humidity chamber of the instrument and held under constant humidity. A sample in an open glass vial was also set up under ambient conditions. After a certain period of time, the sample was removed and characterized by XRPD, DSC, and TGA. Weight loss by TGA was mostly associated with loss of water. The experimental parameters of XRPD, DSC, and TGA are analogous to those in Example 6 for Form HI.
Form HI was stable for 10 days under humidity conditions of 10-85% RH and was stable for 60 days under ambient conditions. […] The table below provides the data for the physical stability of Form HI at 25° C. (open vial).

[4] = Competitive slurry experiment, relative stability of polymorph forms; conditions: in butanone and butanone/heptane (1:1)
Experimental: In order to evaluate the relative stability relationship of the various Compound I di-tosylate polymorph forms, a competitive slurry experiment with a mixture of Form I, II, III and IIIa through Form XII was conducted in butanone-heptane at 50° C. according to Procedure 1 below and in butanone at 25° C. according to Procedure 2 below. The mixture of thirteen polymorphs was converted to Form I after stirring in butanone/heptane (1:1) at 50° C. for 6-18 hours and after stirring in butanone at 25° C. for 6-18 hours.
Procedure 1 competitive experiment in butanone-heptane at 50° C.:
Procedure 2 competitive experiment in butanone at 25° C.: […]

[5] = Concentration of saturated solution in ethanol
Experimental: In one experiment, Form IIIa was prepared by adding 0.4 mL of saturated solution of Form I in ethanol (60 mg/mL) to 3.0 mL of IPAc. The resulting solid was filtered. Form IIIa was also prepared according to the procedure set forth in Example 13 using EtOH/IPAc as a solvent pair.
In one experiment, Form X was prepared by adding 0.3 mL of saturated solution of Form I in ethanol (60 mg/mL) to 2.5 mL of heptane. The resulting solid was filtered. Form X was also prepared according to the procedure set forth in Example 13 using EtOH/heptane as a solvent pair.

[6] = Thermogravimetric analysis (TGA), decomposition; conditions: ramp 20° C. to 600° C. at 20° C./min, nitrogen
Experimental: Form I was characterized by TGA. The TGA was obtained using a TA Instrument Thermogravimetric Analyzer, Model Q500. The general experimental conditions for TGA were: ramp from 20° C. to 600° C. at 20° C./min; nitrogen purge, gas flow at 40 mL/min followed by balance of the purge flow; sample purge flow at 60 mL/min; platinum sample pan. A weight loss of about 3.5% up to 150° C. was observed and believed to be associated with the loss of moisture and residual solvents.

[7] = high humidity about 60-85% RH, bis(4-methylbenzenesulfonate)
[8] = 0% RH, 2 days, 25° C., open vial
[9] = 5% RH, 7 days, 25° C., open vial
[10] = 10% RH, 10 days, 25° C., open vial
[11] = 30% RH, 5 days, 25° C., open vial
[12] = 75% RH, 10 days, 25° C., open vial
[13] = 85% RH, 10 days, 25° C., open vial
[14] = 90% RH, 4 days, 25° C., open vial

Hygroscopicity (DVS adsorption/desorption isotherm) [1]: hygroscopic
Solid form collected after DVS ([1]; after DVS at 85% RH): Form HI
Solid form change on exposure to humidity ([2]; about 30-50% RH): change to Form HIII
Solid form change on exposure to humidity [2, 7]: Form HI
SMILES: COCC1(CN[C@@H]2C[C@H]2c2ccccc2)CCN(CC2(C(=O)O)CCC2)CC1 [Form DH, 1-{[4-(methoxymethyl)-4-({[(1R,2S)-2-phenylcyclopropyl]amino}methyl)piperidin-1-yl]methyl}cyclobutanecarboxylic acid bis(4-methylbenzenesulfonate)]

Hygroscopicity (DVS adsorption/desorption isotherm) [1]: slightly hygroscopic
% Wt Loss by TGA (25-120° C.) [3, 8]: 2.30%
DSC (° C.) (Peak Temperature) [3, 8]: 97.5 °C
XRPD (solid form) [3, 8]: Form DH
% Wt Loss by TGA (25-120° C.) [3, 9]: 2.93%
DSC (° C.) (Peak Temperature) [3, 9]: 81.2 °C
XRPD (solid form) [3, 9]: Form HI
% Wt Loss by TGA (25-120° C.) [3, 10]: 5.05%
DSC (° C.) (Peak Temperature) [3, 10]: 82.4 °C
XRPD (solid form) [3, 10]: Form HI
Physical stability ([3]; 10-85% RH, 10 days, 25° C.): stable
% Wt Loss by TGA (25-120° C.) [3, 11]: 5.38%
DSC (° C.) (Peak Temperature) [3, 11]: 80.7 °C
XRPD (solid form) [3, 11]: Form HI
% Wt Loss by TGA (25-120° C.) [3, 12]: 5.30%
DSC (° C.) (Peak Temperature) [3, 12]: 79.8 °C
XRPD (solid form) [3, 12]: Form HI
% Wt Loss by TGA (25-120° C.) [3, 13]: 5.35%
DSC (° C.) (Peak Temperature) [3, 13]: 79.9 °C
XRPD (solid form) [3, 13]: Form HI
Physical stability ([3]; 90% RH, 25° C.): change to Form HII
% Wt Loss by TGA (25-120° C.) [3, 14]: 6.04%
DSC (° C.) (Peak Temperature) [3, 14]: 80.0 °C
XRPD (solid form) ([3]; 90% RH, 4 days, 25° C., open vial, cell wraps over r12-r14: Form HI + Form HII (minor)): Form HI +
% Wt Loss by TGA (25-120° C.) ([3]; 90% RH, 10 days, 25° C., open vial): 9.4%
XRPD (solid form) ([3]; 90% RH, 10 days, 25° C., open vial, cell wraps over r15-r16: Form HI + Form HII): Form HI +
% Wt Loss by TGA (25-120° C.) ([3]; Ambient, 60 days, open vial): 4.77%
DSC (° C.) (Peak Temperature) ([3]; Ambient, 60 days, open vial): 79.8 °C
XRPD (solid form) ([3]; Ambient, 60 days, open vial): Form HI
Physical stability ([3]; ambient conditions, 60 days, open vial): stable
Physical stability ([3]; below 10% RH, 25° C.): de-hydrated
SMILES: COCC1(CN[C@@H]2C[C@H]2c2ccccc2)CCN(CC2(C(=O)O)CCC2)CC1 [Form HI, 1-{[4-(methoxymethyl)-4-({[(1R,2S)-2-phenylcyclopropyl]amino}methyl)piperidin-1-yl]methyl}cyclobutanecarboxylic acid bis(4-methylbenzenesulfonate)]

Solid form change on exposure to humidity [2, 7]: change to Form HI
SMILES: COCC1(CN[C@@H]2C[C@H]2c2ccccc2)CCN(CC2(C(=O)O)CCC2)CC1 [Form HIII, 1-{[4-(methoxymethyl)-4-({[(1R,2S)-2-phenylcyclopropyl]amino}methyl)piperidin-1-yl]methyl}cyclobutanecarboxylic acid bis(4-methylbenzenesulfonate)]

Hygroscopicity (DVS adsorption/desorption isotherm) [1]: hygroscopic
Relative stability of polymorphic forms [4]: most stable polymorphic form
Solid form change ([2]; drying of wet sample under ambient conditions, atmospheric moisture): changed to crystalline Form HI
Solid form change on storage ([2]; storage 25° C./60% RH): converted to Form HI
Solid form change on storage ([2]; storage 40° C./75% RH): converted to Form HI
Concentration of saturated solution [5]: 60000 µg/mL
Temperature after which significant decomposition starts (TGA) [6]: > 200 °C
SMILES: COCC1(CN[C@@H]2C[C@H]2c2ccccc2)CCN(CC2(C(=O)O)CCC2)CC1 [Form I, 1-{[4-(methoxymethyl)-4-({[(1R,2S)-2-phenylcyclopropyl]amino}methyl)piperidin-1-yl]methyl}cyclobutanecarboxylic acid bis(4-methylbenzenesulfonate)]
